Results on 14 compounds are retold here after US12447153B2, “HER2 mutation inhibitors” (Array BioPharma Inc., priority 2021, dated 2025).

One assay has as its target ErbB2 WT (Homo sapiens (Human), UniProt P04626). Briefly: ErbB Enzyme Assay (HTRF KinEASE-TK), Assay 2. Format: biochemical. Particulars: ErbB2 WT enzyme. (In general: Time-resolved FRET reads energy transfer from a long-lived donor to a nearby acceptor.)
Another assay deals with EGFR (Homo sapiens (Human), UniProt P00533). The experiment in a line: ErbB Enzyme Assay (HTRF KinEASE-TK), Assay 3. In kind it is biochemical. The note with it: EGFR enzyme.
In assay [1] the target is ErbB2 with Exon 20 YVMA insertion (HER2-YVMA) (Homo sapiens (Human), UniProt P04626, INS775YVMA). The experiment in a line: Cellular Phosphorylation Assay, Assay 4 (constitutive ErbB2 phosphorylation, NIH 3T3 cells). In kind it is cell-based. Particulars: ErbB2 YVMA phosphorylation.
The next assay has as its target EGFR wild type (EGFR WT) (Homo sapiens (Human), UniProt P00533). Briefly: Cellular Phosphorylation Assay, Assay 5 (EGF-stimulated EGFR phosphorylation, NIH 3T3 cells). Format: cell-based. Particulars: EGF-stimulated EGFR WT phosphorylation.

EGFR, sequence (P00533 25-1210): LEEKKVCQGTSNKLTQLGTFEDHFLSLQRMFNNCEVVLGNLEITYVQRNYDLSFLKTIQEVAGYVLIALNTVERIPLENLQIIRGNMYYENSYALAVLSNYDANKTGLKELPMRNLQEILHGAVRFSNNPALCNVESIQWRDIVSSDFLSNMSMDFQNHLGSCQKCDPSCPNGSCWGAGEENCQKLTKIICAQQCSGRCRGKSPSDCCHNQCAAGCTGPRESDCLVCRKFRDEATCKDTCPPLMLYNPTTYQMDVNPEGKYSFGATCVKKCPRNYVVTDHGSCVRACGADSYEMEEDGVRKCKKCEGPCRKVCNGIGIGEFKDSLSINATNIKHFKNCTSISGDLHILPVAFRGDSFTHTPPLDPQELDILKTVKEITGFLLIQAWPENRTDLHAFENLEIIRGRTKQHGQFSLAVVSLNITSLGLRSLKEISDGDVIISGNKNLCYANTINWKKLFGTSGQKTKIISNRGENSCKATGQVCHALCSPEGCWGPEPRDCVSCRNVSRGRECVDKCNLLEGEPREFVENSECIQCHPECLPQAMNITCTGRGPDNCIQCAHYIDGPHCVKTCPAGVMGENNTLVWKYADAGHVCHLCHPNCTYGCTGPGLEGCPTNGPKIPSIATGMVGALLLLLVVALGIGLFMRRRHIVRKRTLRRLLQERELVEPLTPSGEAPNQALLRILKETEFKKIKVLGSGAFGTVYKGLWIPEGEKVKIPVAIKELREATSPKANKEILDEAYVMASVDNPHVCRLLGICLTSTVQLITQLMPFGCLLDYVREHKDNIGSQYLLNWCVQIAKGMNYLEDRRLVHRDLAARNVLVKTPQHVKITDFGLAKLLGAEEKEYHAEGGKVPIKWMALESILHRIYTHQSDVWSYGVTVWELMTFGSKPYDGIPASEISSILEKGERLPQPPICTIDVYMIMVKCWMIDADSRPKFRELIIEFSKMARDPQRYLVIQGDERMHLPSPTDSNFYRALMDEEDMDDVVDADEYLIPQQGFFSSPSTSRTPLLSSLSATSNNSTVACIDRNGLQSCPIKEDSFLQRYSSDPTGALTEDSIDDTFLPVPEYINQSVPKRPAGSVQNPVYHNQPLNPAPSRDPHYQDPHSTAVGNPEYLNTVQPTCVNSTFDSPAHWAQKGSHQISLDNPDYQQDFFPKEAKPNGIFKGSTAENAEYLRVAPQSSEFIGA
EGFR wild type (EGFR WT), sequence (P00533 25-1210): as above
ErbB2 WT, sequence (P04626 23-1255): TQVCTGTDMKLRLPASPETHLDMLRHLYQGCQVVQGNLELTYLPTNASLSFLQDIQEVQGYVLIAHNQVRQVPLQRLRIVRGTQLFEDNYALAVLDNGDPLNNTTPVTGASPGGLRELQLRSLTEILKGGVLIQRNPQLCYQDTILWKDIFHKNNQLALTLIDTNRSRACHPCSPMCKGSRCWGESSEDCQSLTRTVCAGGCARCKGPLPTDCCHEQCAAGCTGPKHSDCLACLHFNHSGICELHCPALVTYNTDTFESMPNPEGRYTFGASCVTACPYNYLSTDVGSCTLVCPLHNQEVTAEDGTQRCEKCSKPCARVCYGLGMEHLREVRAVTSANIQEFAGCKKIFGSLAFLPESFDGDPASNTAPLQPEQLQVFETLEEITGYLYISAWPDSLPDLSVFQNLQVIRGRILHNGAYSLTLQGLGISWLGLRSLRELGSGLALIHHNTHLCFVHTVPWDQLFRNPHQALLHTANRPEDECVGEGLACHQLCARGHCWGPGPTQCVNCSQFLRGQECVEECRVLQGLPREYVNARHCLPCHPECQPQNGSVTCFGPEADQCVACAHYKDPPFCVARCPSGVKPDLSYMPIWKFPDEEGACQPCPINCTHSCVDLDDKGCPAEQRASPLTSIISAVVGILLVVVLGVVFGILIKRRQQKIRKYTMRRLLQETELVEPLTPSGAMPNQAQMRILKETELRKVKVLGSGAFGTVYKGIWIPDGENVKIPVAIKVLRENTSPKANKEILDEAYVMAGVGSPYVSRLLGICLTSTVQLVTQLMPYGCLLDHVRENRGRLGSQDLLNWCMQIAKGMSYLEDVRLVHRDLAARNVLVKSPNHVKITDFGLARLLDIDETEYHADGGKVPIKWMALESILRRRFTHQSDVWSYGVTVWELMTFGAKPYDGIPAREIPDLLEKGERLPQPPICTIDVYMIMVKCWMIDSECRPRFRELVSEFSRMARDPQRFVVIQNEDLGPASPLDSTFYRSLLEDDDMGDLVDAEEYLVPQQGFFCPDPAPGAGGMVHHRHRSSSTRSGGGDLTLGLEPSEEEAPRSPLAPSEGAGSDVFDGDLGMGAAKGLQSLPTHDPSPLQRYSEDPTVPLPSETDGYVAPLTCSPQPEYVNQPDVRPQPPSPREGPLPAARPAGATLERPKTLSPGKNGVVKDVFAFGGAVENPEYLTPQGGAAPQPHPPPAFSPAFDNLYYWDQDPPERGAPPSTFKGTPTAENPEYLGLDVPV
ErbB2 with Exon 20 YVMA insertion (HER2-YVMA), sequence (P04626 other isoform, or with tags, fused parts or gaps ins YVMA behind 775): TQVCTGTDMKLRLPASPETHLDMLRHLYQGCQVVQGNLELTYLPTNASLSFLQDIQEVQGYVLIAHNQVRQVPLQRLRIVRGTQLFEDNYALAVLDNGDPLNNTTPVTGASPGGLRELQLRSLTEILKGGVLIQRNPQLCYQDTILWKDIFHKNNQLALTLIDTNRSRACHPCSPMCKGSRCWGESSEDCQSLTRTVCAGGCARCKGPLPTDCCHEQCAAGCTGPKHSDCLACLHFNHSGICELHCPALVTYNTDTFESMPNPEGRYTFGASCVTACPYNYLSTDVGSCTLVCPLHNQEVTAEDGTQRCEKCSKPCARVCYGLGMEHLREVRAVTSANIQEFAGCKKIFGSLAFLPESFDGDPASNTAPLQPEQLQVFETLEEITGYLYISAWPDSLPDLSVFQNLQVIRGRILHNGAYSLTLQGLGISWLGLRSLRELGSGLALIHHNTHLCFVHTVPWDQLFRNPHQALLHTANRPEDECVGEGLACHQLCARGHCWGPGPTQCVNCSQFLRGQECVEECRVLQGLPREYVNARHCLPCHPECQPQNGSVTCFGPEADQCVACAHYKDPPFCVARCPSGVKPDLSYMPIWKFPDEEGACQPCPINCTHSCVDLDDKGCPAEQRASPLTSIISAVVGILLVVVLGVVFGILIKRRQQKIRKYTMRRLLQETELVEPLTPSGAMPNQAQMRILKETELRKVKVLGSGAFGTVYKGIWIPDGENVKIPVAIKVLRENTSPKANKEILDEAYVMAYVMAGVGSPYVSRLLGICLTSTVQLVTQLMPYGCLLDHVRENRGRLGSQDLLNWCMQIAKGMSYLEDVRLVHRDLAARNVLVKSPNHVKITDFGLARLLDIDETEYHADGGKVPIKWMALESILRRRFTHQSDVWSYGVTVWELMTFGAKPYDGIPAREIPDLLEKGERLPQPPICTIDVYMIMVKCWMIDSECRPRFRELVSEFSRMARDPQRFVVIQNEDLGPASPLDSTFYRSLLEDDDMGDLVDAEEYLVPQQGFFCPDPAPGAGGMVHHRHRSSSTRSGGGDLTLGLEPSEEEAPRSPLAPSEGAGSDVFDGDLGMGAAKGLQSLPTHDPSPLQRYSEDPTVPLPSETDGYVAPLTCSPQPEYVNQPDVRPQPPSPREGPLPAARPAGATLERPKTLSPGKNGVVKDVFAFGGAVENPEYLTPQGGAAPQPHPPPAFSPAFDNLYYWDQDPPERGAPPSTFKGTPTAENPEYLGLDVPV

The IC50 is the concentration needed to halve the response being measured. Lower therefore signals inhibition by little substance. With `C=CC(=O)N1CCN(c2nc3c(Nc4ccc(Oc5ccc6cn(C)nc6c5)c(C)c4)ncnc3cc2OC)CC1` [Example 158, 1-(4-(7-methoxy-4-((3-methyl-4-((2-methyl-2H-indazol-6-yl)oxy)phenyl)amino)pyrido[3,2-d]pyrimidin-6-yl)piperazin-1-yl)prop-2-en-1-one], the IC50 against ErbB2 WT was 39.1 nM; on EGFR it was 0.321 µM; in assay [1], 16.5 nM; on EGFR wild type (EGFR WT), 366 nM.

Regarding `C=CC(=O)N1CCN(c2nc3c(Nc4ccc(Oc5ccn6ncnc6c5)c(C)c4F)ncnc3cc2Cl)CC1(C)C` [Example 160, 1-(4-(4-((4-([1,2,4]triazolo[1,5-a]pyridin-7-yloxy)-2-fluoro-3-methylphenyl)amino)-7-chloropyrido[3,2-d]pyrimidin-6-yl)-2,2-dimethylpiperazin-1-yl)prop-2-en-1-one], the IC50 at ErbB2 WT is 515 nM; on EGFR it was ≥ 10 µM; in assay [1] it was 165 nM; at EGFR wild type (EGFR WT), ≥ 5000 nM.

For the compound `C=CC(=O)N1CCN(c2ccc3ncnc(Nc4ccc(Oc5ccc6c(c5)ncn6C)c(C)c4F)c3n2)C[C@@H]1C1CC1` [Example 162, (S)-1-(2-cyclopropyl-4-(4-((2-fluoro-3-methyl-4-((1-methyl-1H-benzo[d]imidazol-5-yl)oxy)phenyl)amino)pyrido[3,2-d]pyrimidin-6-yl)piperazin-1-yl)prop-2-en-1-one], the IC50 at ErbB2 WT was 342 nM; at EGFR, ≥ 10 µM; in assay [1], 25.7 nM; on EGFR wild type (EGFR WT) it was ≥ 5000 nM.

Turning to `C=CC(=O)N1[C@H](C)C[C@@H](c2ccc3ncnc(Nc4ccc(Oc5ccc6c(c5)ncn6C)c(C)c4F)c3n2)C[C@@H]1C` [Example 166, 1-((2R,4SR,6S)-4-(4-((2-fluoro-3-methyl-4-((1-methyl-1H-benzo[d]imidazol-5-yl)oxy)phenyl)amino)pyrido[3,2-d]pyrimidin-6-yl)-2,6-dimethylpiperidin-1-yl)prop-2-en-1-one], the IC50 at ErbB2 WT was 64.2 nM; against EGFR, ≥ 10 µM; in assay [1], 64.6 nM; against EGFR wild type (EGFR WT), ≥ 5000 nM.

For `C=CC(=O)N1C[C@@H](c2ccc3ncnc(Nc4cc(C)c(Oc5ccc6c(c5)ncn6C)cc4F)c3n2)CC[C@H]1C` [Example 170, 1-((2R,5S)-5-(4-((2-fluoro-5-methyl-4-((1-methyl-1H-benzo[d]imidazol-5-yl)oxy)phenyl)amino)pyrido[3,2-d]pyrimidin-6-yl)-2-methylpiperidin-1-yl)prop-2-en-1-one], the IC50 on ErbB2 WT was 261 nM; against EGFR, ≥ 10 µM; in assay [1] it was 44.9 nM; against EGFR wild type (EGFR WT), ≥ 5000 nM.

In the case of `CC#CC(=O)N1CCN(c2ccc3ncnc(Nc4ccc(Oc5ccn6ncnc6c5)c(Cl)c4F)c3n2)C[C@H]1C` [Example 178, (R)-1-(4-(4-((4-([1,2,4]triazolo[1,5-a]pyridin-7-yloxy)-3-chloro-2-fluorophenyl)amino)pyrido[3,2-d]pyrimidin-6-yl)-2-methylpiperazin-1-yl)but-2-yn-1-one], the IC50 stood at 8 nM at ErbB2 WT, 0.443 µM on EGFR, 27.7 nM in assay [1] and 437 nM at EGFR wild type (EGFR WT).

As for `CC#CC(=O)N1CCN(c2ccc3ncnc(Nc4ccc(Oc5ccn6ncnc6c5)c(C)c4F)c3n2)CC1(C)C` [Example 179, 1-(4-(4-((4-([1,2,4]triazolo[1,5-a]pyridin-7-yloxy)-2-fluoro-3-methylphenyl)amino)pyrido[3,2-d]pyrimidin-6-yl)-2,2-dimethylpiperazin-1-yl)but-2-yn-1-one], the IC50 against ErbB2 WT was 74 nM; on EGFR it was 7.63 µM; in assay [1], 103 nM; at EGFR wild type (EGFR WT) it was ≥ 5000 nM.

As for `CC#CC(=O)N1CCN(c2ccc3ncnc(Nc4ccc(Oc5ccn6ncnc6c5)c(C)c4F)c3n2)C[C@@H]1COC` [Example 180, (R)-1-(4-(4-((4-([1,2,4]triazolo[1,5-a]pyridin-7-yloxy)-2-fluoro-3-methylphenyl)amino)pyrido[3,2-d]pyrimidin-6-yl)-2-(methoxymethyl)piperazin-1-yl)but-2-yn-1-one], the IC50 on ErbB2 WT is 314 nM; against EGFR it was ≥ 10 µM; in assay [1], 73.4 nM; against EGFR wild type (EGFR WT), ≥ 5000 nM.

For the compound `CC#CC(=O)N1CCN(c2ccc3ncnc(Nc4ccc(Oc5ccn6ncnc6c5)c(Cl)c4F)c3n2)CC12CC2` [Example 181, 1-(7-(4-((4-([1,2,4]triazolo[1,5-a]pyridin-7-yloxy)-3-chloro-2-fluorophenyl)amino)pyrido[3,2-d]pyrimidin-6-yl)-4,7-diazaspiro[2.5]octan-4-yl)but-2-yn-1-one], the IC50 at ErbB2 WT amounted to 11.7 nM; against EGFR, 0.553 µM; in assay [1], 35.3 nM; against EGFR wild type (EGFR WT) it was 879 nM.

On to `CC#CC(=O)N1CCN(c2ccc3ncnc(Nc4ccc(Oc5ccn6ncnc6c5)c(C)c4F)c3n2)CC12CC2` [Example 182, 1-(7-(4-((4-([1,2,4]triazolo[1,5-a]pyridin-7-yloxy)-2-fluoro-3-methylphenyl)amino)pyrido[3,2-d]pyrimidin-6-yl)-4,7-diazaspiro[2.5]octan-4-yl)but-2-yn-1-one], for which the IC50 on ErbB2 WT is 27.3 nM; at EGFR, 6.14 µM; in assay [1] it was 76.1 nM; against EGFR wild type (EGFR WT) it was 2730 nM.

For `CC#CC(=O)N1CCN(c2ccc3ncnc(Nc4ccc(Oc5ccn6ncnc6c5)c(Cl)c4F)c3n2)C[C@@H]1C(F)(F)F` [Example 183, (R)-1-(4-(4-((4-([1,2,4]triazolo[1,5-a]pyridin-7-yloxy)-3-chloro-2-fluorophenyl)amino)pyrido[3,2-d]pyrimidin-6-yl)-2-(trifluoromethyl)piperazin-1-yl)but-2-yn-1-one], the IC50 on ErbB2 WT was 6.2 nM; against EGFR, 0.0733 µM; in assay [1], 4.4 nM; at EGFR wild type (EGFR WT), 79.3 nM.

Turning to `C=C(F)C(=O)N1CCN(c2ccc3ncnc(Nc4ccc(Oc5ccn6ncnc6c5)c(C)c4F)c3n2)CC1` [Example 185, 1-(4-(4-((4-([1,2,4]triazolo[1,5-a]pyridin-7-yloxy)-2-fluoro-3-methylphenyl)amino)pyrido[3,2-d]pyrimidin-6-yl)piperazin-1-yl)-2-fluoroprop-2-en-1-one], the IC50 against ErbB2 WT is 128 nM; against EGFR, ≥ 10 µM; in assay [1], 315 nM; at EGFR wild type (EGFR WT) it was ≥ 5000 nM.

With `C=C(F)C(=O)N1CCN(c2ccc3ncnc(Nc4ccc(Oc5ccn6ncnc6c5)c(C)c4F)c3n2)CC1(C)C` [Example 187, 1-(4-(4-((4-([1,2,4]triazolo[1,5-a]pyridin-7-yloxy)-2-fluoro-3-methylphenyl)amino)pyrido[3,2-d]pyrimidin-6-yl)-2,2-dimethylpiperazin-1-yl)-2-fluoroprop-2-en-1-one], the IC50 was 100 nM at ErbB2 WT, ≥ 10 µM on EGFR, 273 nM in assay [1] and ≥ 5000 nM on EGFR wild type (EGFR WT).

On to `CC#CC(=O)N1CCC12CN(c1ccc3ncnc(Nc4cc(C)c(Oc5ccn6ncnc6c5)cc4F)c3n1)C2` [Example 188, 1-(6-(4-((4-([1,2,4]triazolo[1,5-a]pyridin-7-yloxy)-2-fluoro-5-methylphenyl)amino)pyrido[3,2-d]pyrimidin-6-yl)-1,6-diazaspiro[3.3]heptan-1-yl)but-2-yn-1-one], for which the IC50 against ErbB2 WT is 1450 nM; against EGFR, ≥ 10 µM; in assay [1], 2020 nM; at EGFR wild type (EGFR WT), ≥ 5000 nM.
